# According to patent publication US7182943B2, “Method and system for modulation of microbial cell characteristics” (Université Laval, priority 2002, dated 2007):
# Like-named read-outs stand apart in the source and are kept apart here. No end group written: not given here.
# Tests used:
# L. diacetylactis = experiment: Antibiotic tolerance by the disc assay method, L. diacetylactis cells; format: cell-based, Lactococcus lactis ssp lactis biovar diacetylactis; conditions: after approximately 6 days of continuous culture, tolerance increased with time
# Procedure: (§1) FIG. 1 : Tolerance to kanamycin of L. diacetylactis and B. longum cells produced during continuous immobilized cell fermentation in reactors R1 and R2 for different culture times. J and R indicate the culture day and reactor, respectively. The antibiotic sensitivity was tested by the disc assay method.
# (§2) Bifidobacterium longum ATCC 15707 and Lactococcus lactis ssp lactis biovar diacetylactis were immobilized separately in κ-carrageenan/locust bean gum gel beads with a 2% (v/v) inoculum, as described previously (Lamboley et al. 1997). Beads with diameters in the range 1–2 mm were selected by wet sieving and used for fermentation experiments. This mixed gel is a good matrix entrapment for temperature-sensitive cells, with good mechanical properties for long-term stability during continuous culture with immobilized cells (Lamboley et al., 1997; 1999; 2001). The κ-carrageenan/locust bean gum gel is stabilized by potassium and other cations present in the culture broth. […] Other gel compositions can also be used for the immobilization matrix, such as polysaccharides and proteins, with other chemical products.
# (§3) Reactor R1 was inoculated with 15% (v/v) of each of the two types of gel beads containing a pure culture of the two strains which have been pre-colonized during a 16 h pH-controlled batch culture. […] The reactors in series were continuously fed with MRS medium (de Man et al., 1960) supplemented with KCl 0.15 M to ensure bead mechanical stability. Medium feed flow rate was set at 240 ml/h during the 17-day culture and pH was controlled at 6.0 by addition of NH4OH 6N. The bioreactor was held at temperatures varying between 32–37° C. and purged with CO2 to maintain anaerobic conditions, with mixing set at 120 rpm.
# (§4) FIG. 1 and Table 1 illustrate the effect of different antibiotics on the increase of L. diacetylactis and B. longum tolerance as a function of culture time.
# B. longum [1] = experiment: Antibiotic sensitivity by the disc assay method, B. longum cells; format: cell-based, Bifidobacterium longum ATCC 15707; conditions: after approximately 6 days of continuous culture, tolerance increased with time
# Procedure: as §1, §2, §3, §4
# B. longum [2] = conditions: 30000 ppm H2O2, 1 min at 37° C.
# Procedure: FIG. 4: B. longum survival to hydrogen peroxyde (H2O2) of control (free-cell batch culture) and experimental (continuous two-stage immobilized cells fermentation) cultures. […] A bacterial sample (1 ml) was incubated with 9 ml H2O2 solution at final concentrations of 0, 2000, 10000, 20000, or 30000 ppm H2O2, for 1 min at 37° C. After incubation, 0.1 ml of test sample was added to 9.9 ml catalase 2% to stop the reaction, and cell survival was determined by the pour plate method.
# The resistance of cells in the effluents from R1 and R2 to different stresses was tested as a function of fermentation time and compared to a control treatment. Control cells were produced during free-cell batch fermentation in MRS medium inoculated at 2% and incubated for 18 h at 37° C. with no pH control.
molecule,measurement,setting,value
O=C(N[C@H](CO)[C@H](O)c1ccc([N+](=O)[O-])cc1)C(Cl)Cl [Chloramphenicol],Tolerance of cells produced with immobilized cell technology compared to the control,L. diacetylactis,more tolerant
same,Tolerance of cells produced with immobilized cell technology compared to the control,B. longum [1],increased tolerance
CC[C@H]1OC(=O)[C@H](C)[C@@H](O[C@H]2C[C@@](C)(OC)[C@@H](O)[C@H](C)O2)[C@H](C)[C@@H](O[C@@H]2O[C@H](C)C[C@H](N(C)C)[C@H]2O)[C@](C)(O)C[C@@H](C)C(=O)[C@H](C)[C@@H](O)[C@]1(C)O [Erythromycin],Tolerance of cells produced with immobilized cell technology compared to the control,B. longum [1],increased tolerance
"OO [H2O2, hydrogen peroxide]",Cell survival,B. longum [2]; B. longum cells produced with ICT,0.1%
same,Cell survival,B. longum [2]; B. longum control cells (free-cell batch culture),0.003%
CN[C@H](CC(C)C)C(=O)N[C@H]1C(=O)N[C@@H](CC(N)=O)C(=O)N[C@H]2C(=O)N[C@H]3C(=O)N[C@H](C(=O)N[C@H](C(=O)O)c4cc(O)cc(O)c4-c4cc3ccc4O)[C@H](O)c3ccc(c(Cl)c3)Oc3cc2cc(c3O[C@@H]2O[C@H](CO)[C@@H](O)[C@H](O)[C@H]2O[C@H]2C[C@](C)(N)[C@H](O)[C@H](C)O2)Oc2ccc(cc2Cl)[C@H]1O [Vancomycin],Tolerance of cells produced with immobilized cell technology compared to the control,L. diacetylactis,more tolerant
same,Tolerance of cells produced with immobilized cell technology compared to the control,B. longum [1],increased tolerance
CN(C)[C@@H]1C(=O)C(C(N)=O)=C(O)[C@@]2(O)C(=O)C3=C(O)c4c(O)cccc4[C@@](C)(O)[C@H]3C[C@@H]12 [tetracyclin],Tolerance of cells produced with immobilized cell technology compared to the control,L. diacetylactis,more tolerant
same,Tolerance of cells produced with immobilized cell technology compared to the control,B. longum [1],increased tolerance
"Nisin Z (ITSISLCTPGCKTGALMGCNMKTATCNCSIHVSK; also: lantibiotic nisin-Z: thioether rings and dehydro residues not placed; UniProt P29559 24-57, looked up) [bacteriocin tested among the antibiotics in the disc assay]",Tolerance of cells produced with immobilized cell technology compared to the control,L. diacetylactis,more tolerant
same,Tolerance of cells produced with immobilized cell technology compared to the control,B. longum [1],increased tolerance
